In patent US10781208B2, “5,6-dihydro-11H-indolo[2,3-B]quinolin-11-ones as alk inhibitors” (THE REGENTS OF THE UNIVERSITY OF MICHIGAN, priority 2016, dated 2020):

Tests used:
H3122 (EML4-ALK) = test: Cell growth inhibition assay (WST-8), H3122; type: cell-based; details: Homo sapiens, NCI-H3122, read-out: H3122 (nM) (EML4-ALK), 50% of cell growth inhibition (IC50); H3122 cells, WST-8, versus DMSO control
Description: (§1) All cell lines were cultured as recommended. For cell growth inhibition assay, cells were treated with different concentrations of the tested compounds, diluted from stock to culture media containing a 0.2% DMSO as the final concentration. Cell viability was determined using the WST-8 cell proliferation assay kit (Dojindo Molecular Technologies) according to manufacture's instructions. Three independent experiments in triplicates were performed.

Kappas-299 (NPM-ALK) = test: Cell growth inhibition assay (WST-8), Kappas-299; type: cell-based; details: read-out: Kappas-299 (nM) (NPM-ALK), 50% of cell growth inhibition (IC50), Kappas-299 cells, WST-8, versus DMSO control
Description: as §1

wild-type human ALK = target: T1, wild-type human ALK (Homo sapiens, UniProt Q9UM73); test: ALK kinase activity, Lance TR-FRET assay (wild-type); type: biochemical; details: Table 2, ALK enzyme; read-out: Inhibitory activity (nM) ALK
T1 construct: The cytoplasmic domain (amino acid 1058-1620) of wild-type human ALK protein; GST (N); purchased Carna Biosciences, Inc (Japan)
T1 sequence (Q9UM73 1058-1620): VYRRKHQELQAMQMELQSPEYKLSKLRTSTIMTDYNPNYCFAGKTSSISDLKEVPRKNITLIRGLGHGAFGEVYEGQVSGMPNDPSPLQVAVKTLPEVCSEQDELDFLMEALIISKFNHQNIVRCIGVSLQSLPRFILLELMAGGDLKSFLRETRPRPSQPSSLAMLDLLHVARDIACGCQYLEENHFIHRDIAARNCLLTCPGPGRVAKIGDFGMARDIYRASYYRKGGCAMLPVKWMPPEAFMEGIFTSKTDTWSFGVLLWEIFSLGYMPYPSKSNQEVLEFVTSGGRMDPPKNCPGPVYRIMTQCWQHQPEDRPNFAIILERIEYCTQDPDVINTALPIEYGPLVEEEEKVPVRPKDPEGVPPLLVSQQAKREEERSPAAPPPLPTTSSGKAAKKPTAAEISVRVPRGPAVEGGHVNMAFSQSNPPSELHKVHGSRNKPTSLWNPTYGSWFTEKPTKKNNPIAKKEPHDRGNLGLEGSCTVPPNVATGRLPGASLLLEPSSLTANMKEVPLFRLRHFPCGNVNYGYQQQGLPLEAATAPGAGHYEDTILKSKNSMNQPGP
Description: Mutated ALK proteins were expressed in SF9 insect cells with N-terminal tags cleaved after purification. Kinase activities of all enzymes were assessed using a Lance TR-FRET assay kit from Perkin Elmer Life Sciences (Waltham, Mass.). 2.5 μL of compound solution and 5 μL of protein solution were added into a black low volume 384 well microtiter plate which was incubated for 30 minutes with gentle shaking at room temperature, followed by adding 2.5 μL of fluorescently labeled peptide substrate and ATP mixture solution. The kinase reaction was performed in 50 mM HEPES (pH 7.5) with 1 mM EGTA, 1 mM MgCl2, and 2 mM DTT, 0.01% Tween-20 added right before the assay. […] The final mixture was incubated in the dark for 1 hour before the plate was read on a Tecan Infinite M-1000 multi-mode plate reader (Tecan, Durham N.C.) with an excitation wavelength of 320 nm.

KARPAS 299 xenograft = KARPAS 299 xenograft model in mice, in vivo antitumor efficacy; details: SCID mice, given orally, once daily for 3 weeks, FIG. 1
Description: Tumor cells for xenografts were washed twice in PBS, and re-suspended in an ice cold mixture of 1:1 PBS and Matrigel (BD Biosciences, Invitrogen Corp.) for a final Matrigel protein concentration of 5 mg/ml. Cells at 5×10^6 cells in 0.1 ml were injected subcutaneously (s.c.) into the flank region of each mouse.
The size of tumors growing in the mice was measured in two dimensions using calipers. Tumor volume (mm^3)=(A×B^2)/2 where A and B are the tumor length and width (in mm), respectively. During treatment, tumor volume and body weight were measured three times a week. After the treatment was stopped, tumor volume and body weight was measured at least once a week.
Tumors were not allowed to exceed 10% of the animal's total body weight. If an animal had two or more tumors the total weight of all tumors were not allowed to exceed 10% of the animal's total body weight. At the end of the experimental period or when tumor size approached 10% of the total body weight, the animal was euthanized.
Mice with tumors within acceptable size range were randomized into treatment groups of 7 mice. Drug was given orally, once daily for 3 weeks. The Control group received vehicle alone.

Compound	IC50 (H3122 (EML4-ALK)) [nM]	IC50 (wild-type human ALK) [nM]	IC50 (Kappas-299 (NPM-ALK)) [nM]	tumor growth in the KARPAS 299 xenograft model (KARPAS 299 xenograft)
CCN1[C@H](C)CN(c2c(OC)cc3c(=O)c4c5ccc(C#N)cc5[nH]c4n(C(C)C)c3c2F)C[C@@H]1C [Cpd. No. 9, 3-((3R,5S)-4-ethyl-3,5-dimethylpiperazin-1-yl)-4-fluoro-5-isopropyl-2-methoxy-11-oxo-6,11-dihydro-5H-indolo[2,3-b]quinoline-8-carbonitrile]	27	–	85	–
COc1cc2c(=O)c3c4ccc(C#N)cc4[nH]c3n(C(C)C)c2c(F)c1C1CC2CCC(C1)N2C (stereo not shown) [Cpd. No. 10, 4-fluoro-5-isopropyl-2-methoxy-3-(8-methyl-8-azabicyclo[3.2.1]octan-3-yl)-11-oxo-6,11-dihydro-5H-indolo[2,3-b]quinoline-8-carbonitrile]	–	0.37	69	–
COc1cc2c(=O)c3c4ccc(C#N)cc4[nH]c3n(C(C)C)c2c(F)c1C1=CC(C)(C)N(C)C(C)(C)C1 [Cpd. No. 12, 4-fluoro-5-isopropyl-2-methoxy-11-oxo-3-(1,2,2,6,6-pentamethyl-1,2,3,6-tetrahydropyridin-4-yl)-6,11-dihydro-5H-indolo[2,3-b]quinoline-8-carbonitrile]	–	0.24	9.7	inhibit tumor growth
COc1cc2c(=O)c3c4ccc(C#N)cc4[nH]c3n(C(C)C)c2c(F)c1C1=CCNCC1 [Cpd. No. 16, 4-fluoro-5-isopropyl-2-methoxy-11-oxo-3-(1,2,3,6-tetrahydropyridin-4-yl)-6,11-dihydro-5H-indolo[2,3-b]quinoline-8-carbonitrile]	–	0.85	167	–
COc1cc2c(=O)c3c4ccc(C#N)cc4[nH]c3n(C(C)C)c2c(F)c1C1=CCN(C)CC1 [Cpd. No. 17, 4-fluoro-5-isopropyl-2-methoxy-3-(1-methyl-1,2,3,6-tetrahydropyridin-4-yl)-11-oxo-6,11-dihydro-5H-indolo[2,3-b]quinoline-8-carbonitrile]	–	0.75	60	–

Now from value to compound, other results behind:

IC50 (H3122 (EML4-ALK)) [nM]	IC50 (wild-type human ALK) [nM]	Compound	IC50 (Kappas-299 (NPM-ALK)) [nM]	tumor growth in the KARPAS 299 xenograft model (KARPAS 299 xenograft)
18	0.5	COc1cc2c(=O)c3c4ccc(C#N)cc4[nH]c3n(C(C)C)c2c(F)c1C1=C[C@@H](C)N[C@@H](C)C1 [Cpd. No. 18, 3-((2S,6R)-2,6-dimethyl-1,2,3,6-tetrahydropyridin-4-yl)-4-fluoro-5-isopropyl-2-methoxy-11-oxo-6,11-dihydro-5H-indolo[2,3-b]quinoline-8-carbonitrile]	16	–
20	0.36	COc1cc2c(=O)c3c4ccc(C#N)cc4[nH]c3n(C(C)C)c2c(F)c1C1=C[C@@H](C)N(C)[C@@H](C)C1 [Cpd. No. 19, 4-fluoro-5-isopropyl-2-methoxy-11-oxo-3-((2S,6R)-1,2,6-trimethyl-1,2,3,6-tetrahydropyridin-4-yl)-6,11-dihydro-5H-indolo[2,3-b]quinoline-8-carbonitrile]	16	inhibit tumor growth
30	1.4	COc1cc2c(=O)c3c4ccc(C#N)cc4[nH]c3n(C(C)C)c2c(F)c1C1=CCN(C2CCOCC2)CC1 [Cpd. No. 20, 4-fluoro-5-isopropyl-2-methoxy-11-oxo-3-(1-(tetrahydro-2H-pyran-4-yl)-1,2,3,6-tetrahydropyridin-4-yl)-6,11-dihydro-5H-indolo[2,3-b]quinoline-8-carbonitrile]	38	inhibit tumor growth
